Data set [1] deals with oncolytic RNA viruses including vesicular stomatitis virus (VSV) and Measles. To be noted: cited from earlier work.
The nature of data set [2]: Solubility of vanadium complex solid in water / PBS buffer.
A short description of data set [3]: Stability of vanadium complexes in water and PBS buffer (NMR, pH over time). To be noted: pH adjusted to 7.4 where needed.

Where only a bound is given, the exact number is not on record here.

On to `[O]=[V]([O-])([O-])[O-]` [orthovanadate], for which, in data set [1], the “Effect on replication and spread of oncolytic RNA viruses” value (“Effect on replication and spread” below) was “improve the replication and spread of oncolytic RNA viruses”.
On to `O=S(=O)([O-])[O-].[O]=[V+2]` [vanadyl sulfate], for which, in data set [1], the “Effect on replication and spread” value was “improve the replication and spread of oncolytic RNA viruses”.
For “K3[(VO2)2(C6H6O7)(C6H5O7)]×3 H2O [CDOS150]”, the “pH up to which the solid dissolved” value in data set [2] (solid dissolved into water and phosphate buffered saline (PBS) buffer) was at most 5. Moreover, the “Stability in solution and need for pH adjustment” value in data set [3] is listed as “the solutions did require initial pH adjustment”.
In the case of `Cc1occc(=O)c1[O-].Cc1occc(=O)c1[O-].[O]=[V+2]` [bismaltolatoxovanadate (BMOV), bismaltolatoxovanadate], the “Effect on replication and spread” value in data set [1] was “improve the replication and spread of oncolytic RNA viruses”.
As for Na3[(V^IVO)2(C6H4O7)(C6H5O7)] [CDOS155], the Solubility result in data set [2] (in water) was “soluble in water”. The “pH up to which the solid dissolved” value in data set [2] (solid mixed with PBS buffer) is recorded as at most 5. For the same molecule, the “Stability in solution and need for pH adjustment” value in data set [3] is “limited at pH 7.4 but similar in water or PBS but required continuous pH adjustment”.
